Reference: patent publication US20090054500A1, “Composition and methods useful in preventing cardiac hypertrophy” (The Brigham and Women's Hospital, Inc., priority 2005, published 2009)
Values joined by “and” are separate entries in the source; they are usually repeats but may differ in a detail not shown here. Identical values can stand only once. Like-named read-outs stand apart in the source and are kept apart here.

What was measured:
[1] = test system: VEGF; conditions: Peterson, et al., Nat. Biotechnol. 22:595 (2004); cited from earlier work
[2] = test system: mouse cardiomyoctes
Procedure: Cell hypertrophy was determined by the incorporation of ^3H-leucine.

[3] = test system: cardiomyocytes; conditions: cardiomyocytes in vitro
[4] = test system: gridlock phenotype associated with mutations in the CHF1 gene in zebrafish; conditions: Peterson, et al., Nat. Biotechnol. 22:595-599 (2004); cited from earlier work

## COc1ccc(SCCc2ccncc2)cc1.Cl [GS4012, 4-(2-(4-Methoxyphenylsulfanyl)ethyl)pyridine, HCl]
[1]
  VEGF and VEGF-mediated vessel formation: induces
[2]; Table 2, GS4012 + FCS, mean of 12 tests
  incorporation of 3H-leucine (cell hypertrophy), mean: 340.5825 counts per minute
[2]; Table 2, GS4012, no FCS, mean of 12 tests
  incorporation of 3H-leucine (cell hypertrophy), mean: 397.6667 counts per minute
[2]; Table 3, WT, GS4012 2.5 μg/ml, no FCS, mean of 8 tests, HCl
  incorporation of 3H-leucine (cell hypertrophy), mean: 329.4 counts per minute and 329.37 counts per minute
[2]; Table 3, WT, GS4012 + FCS, mean of 8 tests, HCl
  incorporation of 3H-leucine (cell hypertrophy), mean: 419.7925 counts per minute and 419.8 counts per minute
[2]; cpm for vehicle+GS4012 compared with vehicle+GS4012+FCS
  FCS induction of cardiomyocyte proliferation when GS4012 was present: did not occur
[3]
  effect on phenylephrine-induced hypertrophy: prevent phenylephrine-induced hypertrophy
[4]
  effect on gridlock phenotype: suppresses the gridlock phenotype
